Earlier results as cited in patent US5419315A, “Intrapulmonary delivery of hormones” (Aradigm Corporation, priority 1994, dated 1995).

Conditions: in vivo

Compound | Bioavailability (%) | bioavailability when administered intranasally
NC(=O)CC[C@@H]1NC(=O)[C@H](Cc2ccccc2)NC(=O)[C@H](Cc2ccc(O)cc2)NC(=O)CCSSC[C@@H](C(=O)N2CCC[C@H]2C(=O)N[C@H](CCCN=C(N)N)C(=O)NCC(N)=O)NC(=O)[C@H](CC(N)=O)NC1=O [Desmopressin] | 10% | 
CCNC(=O)[C@@H]1CCCN1C(=O)[C@H](CCCNC(=N)N)NC(=O)[C@H](CC(C)C)NC(=O)[C@@H](CC(C)C)NC(=O)[C@H](Cc1ccc(O)cc1)NC(=O)[C@H](CO)NC(=O)[C@H](Cc1c[nH]c2ccccc12)NC(=O)[C@H](Cc1c[nH]cn1)NC(=O)[C@@H]1CCC(=O)N1 [Leuprolide] | < 10% | relatively low
CC(C)C[C@H](NC(=O)[C@@H](Cc1ccc2ccccc2c1)NC(=O)[C@H](Cc1ccc(O)cc1)NC(=O)[C@H](CO)NC(=O)[C@H](Cc1c[nH]c2ccccc12)NC(=O)[C@H](Cc1c[nH]cn1)NC(=O)[C@@H]1CCC(=O)N1)C(=O)N[C@@H](CCCNC(=N)N)C(=O)N1CCC[C@H]1C(=O)NCC(N)=O [Nafarelin] | 2% | 
LHRH | 1.5% | 
Secretin | 10% | 

Same assay, conditions: intranasal (nasal delivery)

Compound | Bioavailability (%)
CC[C@H](C)[C@@H]1NC(=O)[C@H](Cc2ccc(O)cc2)NC(=O)[C@@H](N)CSSC[C@@H](C(=O)N2CCC[C@H]2C(=O)N[C@@H](CC(C)C)C(=O)NCC(N)=O)NC(=O)[C@H](CC(N)=O)NC(=O)[C@H](CCC(N)=O)NC1=O [Oxytocin] | 1%
C[C@H](N)C(=O)NCC(=O)N[C@H]1CSSC[C@@H](C(=O)O)NC(=O)[C@H](CO)NC(=O)[C@H]([C@@H](C)O)NC(=O)[C@H](Cc2ccccc2)NC(=O)[C@H]([C@@H](C)O)NC(=O)[C@H](CCCCN)NC(=O)[C@H](Cc2c[nH]c3ccccc23)NC(=O)[C@H](Cc2ccccc2)NC(=O)[C@H](Cc2ccccc2)NC(=O)[C@H](CC(N)=O)NC(=O)[C@H](CCCCN)NC1=O [Somatostatin] | 75%
Calcitonin | < 1%
GHRH (YADAIFTNSYRKVLGQLSARKLLQDIMSRQQGESNQERGA; Somatoliberin; UniProt P01286 32-71, looked up, fragment) | < 1%
Glucagon | < 1%
Growth hormone | < 1%
